According to patent US20110288142A1, “CRYSTALLINE N--5-chloro-4-(4-chloro-1-methyl-1H-pyrazol-5-yl)-2-thiophenecarboxamide hydrochloride” (priority 2009, published 2011):

Key:
[1] = Hygroscopicity, moisture sorption on VTI instrument SGA 100; details: for level of hygroscopicity / weight increase of the compound (moisture): 25 °C; for hygroscopicity of the solid form (general statement): hydrochloride
From the text: There were 24 Relative Humidity steps used. The Relative Humidity at each step is as follows.

[2] = Solubility in bio-relevant media; format: physicochemical
[3] = Chemical stability of solid form; format: physicochemical; details: compared with free acid and other salt forms, including the amorphous hydrochloride form

SMILES | level of hygroscopicity ([1]; amorphous form, dried at 60 °C, 19 relative humidity steps) | weight increase of the compound (moisture) ([1]; amorphous form, dried at 60 °C, 19 relative humidity steps, 0 to 90) | hygroscopicity of the solid form (general statement) [1] | solubility in bio-relevant media [2] | chemical stability [3] | level of hygroscopicity ([1]; crystalline form, no drying, 24 relative humidity steps) | weight increase of the compound (moisture) ([1]; crystalline form, no drying, 24 relative humidity steps, 5 to 90)
Cl.Cn1ncc(Cl)c1-c1cc(C(=O)N[C@H](CN)Cc2cccc(F)c2)sc1Cl [Example 3] | high level of hygroscopicity | more than 18 % w/w | hygroscopic |  |  |  | 
Cl.Cn1ncc(Cl)c1-c1cc(C(=O)N[C@H](CN)Cc2cccc(F)c2)sc1Cl [Compound A] |  |  | non-hygroscopic | good solubility | improved chemical stability | low level of hygroscopicity | less than 1 % w/w
